What all share (type): biochemical
The target in test [1] is T1, ROCK1 (Homo sapiens, UniProt Q13464). Nature of the test: In vitro inhibitory activity assay ROCK1 (Method A, ADP-Glo, 10 μM ATP). Conditions: ATP 10 μM, read-out: Method A ROCK 1 (Ki). As for the experimental part: (§1) In vitro inhibitory activity assay description ROCK1 and ROCK2
(§2) The effectiveness of compounds of the present invention to inhibit Rho kinase activity can be determined in a 10 μl assay containing 40 mM Tris pH7.5, 20 mM MgCl2 0.1 mg/mL BSA, 50 μM DTT and 2.5 μM peptide substrate (Myelin Basic Protein) using an ADP-Glo kit (Promega). Compounds were dissolved in DMSO such that the final concentration of DMSO was 1% in the assay. All reactions/incubations are performed at 25° C. Compound (2 uL) and either Rho kinase 1 or 2 (4 μl) were mixed and incubated for 30 min. Reactions were initiated by addition of ATP (4 μL) such that the final concentration of ATP in the assay was 10 μM. After a 1 hour incubation 1011.1 of ADP-Glo Reagent was added and after a further 45 minutes incubation 20 uL of Kinase Detection Buffer was added and the mixture incubated for a further 30 minutes. The luminescent signal was measured on a luminometer. […] Compounds were tested in dose-response format and the inhibition of kinase activity was calculated at each concentration of compound. To determine the IC50 (concentration of compound required to inhibit 50% of the enzyme activity) data were fit to a plot of % inhibition vs Log10 compound concentration using a sigmoidal fit with a variable slope and fixing the maximum to 100% and the minimum to 0%. To determine the Ki values the Cheng-Prusoff equation was utilized (Ki=IC50/(1+[S]/Km).

The target in test [2] is T2, ROCK2 (Homo sapiens, UniProt O75116). Nature of the test: In vitro inhibitory activity assay ROCK2 (Method A, ADP-Glo, 10 μM ATP). Conditions: ATP 10 μM, read-out: Method A ROCK 2 (Ki). The procedure: as §1, §2
The target of test [3] is T1, ROCK1. The test can be described thus: In vitro inhibitory activity assay ROCK1 (Method B, ADP-Glo, 200 μM ATP). Conditions: ATP 200 μM, read-out: Method B ROCK 1 (Ki). As for the experimental part: (§3) In Vitro Inhibitory Activity Assay Description ROCK1 and ROCK2
as §2, with “(2 μL)” for “(2 uL)”, “was 200” for “was 10”, “incubation […]” for “incubation 1011.1”, “45 minute” for “45 minutes”, “20 μL” for “20 uL”, “utilized ([…].” for “utilized (Ki=IC50/(1+[S]/Km).”

For test [4], the target named is T2, ROCK2. The test can be described thus: In vitro inhibitory activity assay ROCK2 (Method B, ADP-Glo, 200 μM ATP). Particulars: ATP 200 μM, read-out: Method B ROCK 2 (Ki). The procedure: as §3
as §2, with “(2 μL)” for “(2 uL)”, “was 200” for “was 10”, “incubation […]” for “incubation 1011.1”, “45 minute” for “45 minutes”, “20 μL” for “20 uL”, “utilized ([…].” for “utilized (Ki=IC50/(1+[S]/Km).”

The next test has as its target PKA (Homo sapiens, UniProt P17612). Nature of the test: In vitro inhibitory activity assay for PKA (ADP-Glo), reported as selectivity ratio vs ROCK2. Conditions: Ki PKA divided by Ki ROCK2 (method B). As for the experimental part:
In vitro inhibitory activity assay description for PKA
The effectiveness of compounds of the present invention to inhibit PKA activity can be determined in a […], assay containing 40 mM Tris pH7.5, 20 mM MgCl2 0.1 mg/mL BSA, 50 μM DTT and 260 μM peptide substrate (kemptide) using an ADP-Glo kit (Promega). Compounds were dissolved in DMSO such that the final concentration of DMSO was 1% in the assay. All reactions/incubations are performed at 25° C. Compound and PKA enzyme (6 μl) were mixed and incubated for 30 min. Reactions were initiated by addition of ATP (4 μL) such that the final concentration of ATP in the assay was 10 μM. After a 30 minute incubation 10 μL of ADP-Glo Reagent was added and after a further 1 hour incubation 20 μL of Kinase Detection Buffer was added and the mixture incubated for a further 45 minutes. The luminescent signal was measured on a luminometer. […] Compounds were tested in dose-response format and the inhibition of kinase activity was calculated at each concentration of compound. To determine the IC50 (concentration of compound required to inhibit 50% of the enzyme activity) data were fit to a plot of % inhibition vs Log10 compound concentration using a sigmoidal fit with a variable slope and fixing the maximum to 100% and the minimum to 0%. To determine the Ki values the Cheng-Prusoff equation was utilized (Ki=IC50/(1+[S]/Km).
In vitro inhibitory activities for PKA were reported as selectivity ratio vs. ROCK2. Selectivity ratio PKA/ROCK2 was calculated by dividing the Ki value for PKA by Ki value of ROCK2 (method B) and reported into table 1.

T2 sequence (O75116 whole entry): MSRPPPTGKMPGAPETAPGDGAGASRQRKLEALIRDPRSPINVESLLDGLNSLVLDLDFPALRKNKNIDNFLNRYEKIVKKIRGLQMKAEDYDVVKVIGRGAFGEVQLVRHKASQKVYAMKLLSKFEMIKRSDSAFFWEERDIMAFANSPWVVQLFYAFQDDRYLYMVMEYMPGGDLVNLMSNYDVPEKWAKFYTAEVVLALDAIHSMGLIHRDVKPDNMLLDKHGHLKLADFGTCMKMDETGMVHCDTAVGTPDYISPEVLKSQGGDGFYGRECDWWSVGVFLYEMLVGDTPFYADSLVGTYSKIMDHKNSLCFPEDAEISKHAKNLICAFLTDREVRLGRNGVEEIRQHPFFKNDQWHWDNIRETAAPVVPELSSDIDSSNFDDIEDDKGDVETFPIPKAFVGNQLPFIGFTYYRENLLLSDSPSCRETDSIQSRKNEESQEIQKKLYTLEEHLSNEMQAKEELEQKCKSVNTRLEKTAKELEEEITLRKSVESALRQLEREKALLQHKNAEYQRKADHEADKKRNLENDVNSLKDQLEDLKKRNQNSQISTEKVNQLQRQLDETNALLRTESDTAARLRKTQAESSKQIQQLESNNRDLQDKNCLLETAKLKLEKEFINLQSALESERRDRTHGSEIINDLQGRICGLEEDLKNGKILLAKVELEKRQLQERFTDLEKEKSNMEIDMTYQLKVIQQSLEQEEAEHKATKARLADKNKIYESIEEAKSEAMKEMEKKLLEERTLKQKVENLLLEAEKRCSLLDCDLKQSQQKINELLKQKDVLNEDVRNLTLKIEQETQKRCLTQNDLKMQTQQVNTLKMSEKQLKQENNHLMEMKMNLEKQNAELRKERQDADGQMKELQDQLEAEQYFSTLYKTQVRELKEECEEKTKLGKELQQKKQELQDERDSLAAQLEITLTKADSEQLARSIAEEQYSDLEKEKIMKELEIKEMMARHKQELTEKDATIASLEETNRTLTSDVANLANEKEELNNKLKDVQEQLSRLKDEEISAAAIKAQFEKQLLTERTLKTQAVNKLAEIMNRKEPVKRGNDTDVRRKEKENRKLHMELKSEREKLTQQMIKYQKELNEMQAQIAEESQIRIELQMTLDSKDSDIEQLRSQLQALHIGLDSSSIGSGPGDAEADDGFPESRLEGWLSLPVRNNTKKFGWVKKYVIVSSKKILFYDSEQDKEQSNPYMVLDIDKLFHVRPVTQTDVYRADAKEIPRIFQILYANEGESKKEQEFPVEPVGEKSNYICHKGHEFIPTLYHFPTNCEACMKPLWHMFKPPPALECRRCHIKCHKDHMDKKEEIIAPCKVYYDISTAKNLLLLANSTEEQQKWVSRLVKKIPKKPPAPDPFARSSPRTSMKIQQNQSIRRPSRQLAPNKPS
T1 sequence (Q13464 whole entry): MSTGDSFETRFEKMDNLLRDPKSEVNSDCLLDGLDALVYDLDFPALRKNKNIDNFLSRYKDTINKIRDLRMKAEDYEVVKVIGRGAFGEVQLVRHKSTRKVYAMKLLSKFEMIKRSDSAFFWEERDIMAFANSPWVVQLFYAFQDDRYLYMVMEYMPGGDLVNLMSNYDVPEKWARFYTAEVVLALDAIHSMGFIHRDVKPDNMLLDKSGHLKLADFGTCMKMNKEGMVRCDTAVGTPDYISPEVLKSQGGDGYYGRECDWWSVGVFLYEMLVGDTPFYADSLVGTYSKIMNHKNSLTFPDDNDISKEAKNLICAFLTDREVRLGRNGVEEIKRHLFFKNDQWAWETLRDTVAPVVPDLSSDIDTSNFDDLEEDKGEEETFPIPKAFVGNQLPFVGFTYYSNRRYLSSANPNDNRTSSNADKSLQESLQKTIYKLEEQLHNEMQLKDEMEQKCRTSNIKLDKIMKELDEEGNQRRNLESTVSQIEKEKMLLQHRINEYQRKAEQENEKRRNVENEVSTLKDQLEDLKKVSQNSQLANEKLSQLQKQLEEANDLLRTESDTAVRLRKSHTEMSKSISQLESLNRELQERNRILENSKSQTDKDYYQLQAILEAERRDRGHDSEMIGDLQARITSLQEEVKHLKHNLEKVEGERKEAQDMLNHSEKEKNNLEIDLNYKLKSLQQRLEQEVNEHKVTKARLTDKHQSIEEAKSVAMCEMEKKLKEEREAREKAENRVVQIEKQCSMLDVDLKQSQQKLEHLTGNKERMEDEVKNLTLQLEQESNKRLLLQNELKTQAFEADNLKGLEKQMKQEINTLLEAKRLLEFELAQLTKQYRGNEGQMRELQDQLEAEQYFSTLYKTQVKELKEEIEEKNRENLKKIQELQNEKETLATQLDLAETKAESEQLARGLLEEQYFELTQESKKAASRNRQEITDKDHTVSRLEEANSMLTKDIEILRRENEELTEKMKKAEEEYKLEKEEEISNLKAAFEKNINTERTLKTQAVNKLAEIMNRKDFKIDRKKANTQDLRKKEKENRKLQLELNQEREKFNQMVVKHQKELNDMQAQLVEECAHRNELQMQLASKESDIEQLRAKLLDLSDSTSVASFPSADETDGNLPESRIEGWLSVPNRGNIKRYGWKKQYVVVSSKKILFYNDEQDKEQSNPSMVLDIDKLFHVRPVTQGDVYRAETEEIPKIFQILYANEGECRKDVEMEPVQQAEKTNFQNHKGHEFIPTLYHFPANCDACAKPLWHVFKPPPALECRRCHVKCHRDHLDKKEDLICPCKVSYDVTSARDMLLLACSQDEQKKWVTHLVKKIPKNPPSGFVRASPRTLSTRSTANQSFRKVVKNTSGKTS

For `CN1CCC(n2ncc3cc(C(=O)Nc4cccc(CNc5ncc(-c6cn[nH]c6)c6c5CCO6)c4)ccc32)CC1` [Example 44, N-(3-(((7-(1H-pyrazol-4-yl)-2,3-dihydrofuro[3,2-c]pyridin-4-yl)amino)methyl)phenyl)-1-(1-methylpiperidin-4-yl)-1H-indazole-5-carboxamide], the Ki on ROCK1 [1], at ROCK2 [2], at ROCK1 [3] and at ROCK2 [4] was ≤ 3 nM each time.

In the case of `O=C(NC1CCN(C2CC2)CC1)c1cccc(CNc2ncc(-c3cn[nH]c3)c3c2CCO3)c1` [Example 1, 3-(((7-(1H-Pyrazol-4-yl)-2,3-dihydrofuro[3,2-c]pyridin-4-yl)amino)methyl)-N-(1-cyclopropylpiperidin-4-yl)benzamide], the Ki at ROCK1 [3] and on ROCK2 [4] was ≤ 3 nM throughout. Also, the “Ratio Ki PKA/ROCK2” value at PKA is recorded as “*** (ratio≥10)”.

Turning to `O=C(Nc1cccc(CNc2ncc(-c3cn[nH]c3)c3c2CCO3)c1)c1ncc(CN2CCCC2)s1` [Example 48, N-(3-(((7-(1H-pyrazol-4-yl)-2,3-dihydrofuro[3,2-c]pyridin-4-yl)amino)methyl)phenyl)-5-(pyrrolidin-1-ylmethyl)thiazole-2-carboxamide], the Ki on ROCK1 [1], on ROCK2 [2], on ROCK1 [3] and on ROCK2 [4] was ≤ 3 nM throughout.

With `CN1CCc2cc(C(=O)Nc3cccc(CNc4ncc(-c5cn[nH]c5)c5c4CCO5)c3)ccc2C1` [Example 45, N-(3-(((7-(1H-pyrazol-4-yl)-2,3-dihydrofuro[3,2-c]pyridin-4-yl)amino)methyl)phenyl)-2-methyl-1,2,3,4-tetrahydroisoquinoline-6-carboxamide], the Ki on ROCK1 [1], at ROCK2 [2], at ROCK1 [3] and on ROCK2 [4] was ≤ 3 nM throughout.

Take `O=C(NCc1ccccn1)c1cccc(CNc2ncc(-c3cn[nH]c3)c3c2CCO3)c1` [Example 4, 3-(((7-(1H-pyrazol-4-yl)-2,3-dihydrofuro[3,2-c]pyridin-4-yl)amino)methyl)-N-(pyridin-2-ylmethyl)benzamide]: the Ki at ROCK1 [3] and on ROCK2 [4] was 3 to 30 nM throughout.

Turning to `CN(C)CCn1ncc2cc(C(=O)Nc3cccc(CNc4ncc(-c5cn[nH]c5)c5c4CCO5)c3)ccc21` [Example 43, N-(3-(((7-(1H-pyrazol-4-yl)-2,3-dihydrofuro[3,2-c]pyridin-4-yl)amino)methyl)phenyl)-1-(2-(dimethylamino)ethyl)-1H-indazole-5-carboxamide], the Ki on ROCK1 [1], on ROCK2 [2], at ROCK1 [3] and at ROCK2 [4] was ≤ 3 nM throughout.

As for `O=C(Nc1cccc(CNc2ncc(-c3cn[nH]c3)c3c2CCO3)c1)c1ccc2c(cnn2CCN2CCOCC2)c1` [Example 46, N-(3-(((7-(1H-pyrazol-4-yl)-2,3-dihydrofuro[3,2-c]pyridin-4-yl)amino)methyl)phenyl)-1-(2-morpholinoethyl)-1H-indazole-5-carboxamide], the Ki at ROCK1 [1], on ROCK2 [2], on ROCK1 [3] and at ROCK2 [4] was ≤ 3 nM throughout.

With `O=C(NCc1cscn1)c1cccc(CNc2ncc(-c3cn[nH]c3)c3c2CCO3)c1` [Example 14, 3-(((7-(1H-pyrazol-4-yl)-2,3-dihydrofuro[3,2-c]pyridin-4-yl)amino)methyl)-N-(thiazol-4-ylmethyl)benzamide], the Ki at ROCK1 [3] and at ROCK2 [4] was ≤ 3 nM each time.

As for `O=C(NCc1cncnc1)c1cccc(CNc2ncc(-c3cn[nH]c3)c3c2CCO3)c1` [Example 9, 3-(((7-(1H-pyrazol-4-yl)-2,3-dihydrofuro[3,2-c]pyridin-4-yl)amino)methyl)-N-(pyrimidin-5-ylmethyl)benzamide], the Ki on ROCK1 [3] and on ROCK2 [4] was 3 to 30 nM each time.

`CNC(=O)c1cccc(CNc2ncc(-c3cncs3)c3c2CCO3)c1` [Example A, N-Methyl-3-(((7-(thiazol-5-yl)-2,3-dihydrofuropyridin-4-yl)amino)methyl)benzamide, reference compound]: the Ki on ROCK1 [3] and at ROCK2 [4] was > 30 nM in each case.

On to `CNC(=O)c1cccc(CNc2ncc(-c3cnco3)c3c2CCO3)c1` [Example B, N-Methyl-3-(((7-(oxazol-5-yl)-2,3-dihydrofuro[3,2-c]pyridin-4-yl)amino)methyl)benzamide, reference compound], for which the results for the Ki at ROCK1 [3] and at ROCK2 [4] were > 30 nM and 3 to 30 nM, respectively.

Regarding `Cn1ncc2cc(C(=O)Nc3cccc(CNc4ncc(-c5cn[nH]c5)c5c4CCO5)c3)ccc21` [Example 39, N-(3-(((7-(1H-pyrazol-4-yl)-2,3-dihydrofuro[3,2-c]pyridin-4-yl)amino)methyl)phenyl)-1-methyl-1H-indazole-5-carboxamide], the Ki on ROCK1 [1] and at ROCK2 [2] was ≤ 3 nM each time.

Regarding `O=C(N[C@H](CO)c1ccccc1)c1cccc(CNc2ncc(-c3cn[nH]c3)c3c2CCO3)c1` [Example 23, (S)-3-(((7-(1H-pyrazol-4-yl)-2,3-dihydrofuro[3,2-c]pyridin-4-yl)amino)methyl)-N-(2-hydroxy-1-phenylethyl)benzamide], the Ki on ROCK1 [1] and on ROCK2 [2] was ≤ 3 nM throughout.

As to `COCCNC(=O)c1cccc(CNc2ncc(-c3cn[nH]c3)c3c2CCO3)c1` [Example 7, 3-(((7-(1H-pyrazol-4-yl)-2,3-dihydrofuro[3,2-c]pyridin-4-yl)amino)methyl)-N-(2-methoxyethyl)benzamide], the Ki at ROCK1 [3] is 3 to 30 nM; on ROCK2 [4] it was ≤ 3 nM.

Turning to `Cn1ncc2c(C(=O)Nc3cccc(CNc4ncc(-c5cn[nH]c5)c5c4CCO5)c3)cccc21` [Example 42, N-(3-(((7-(1H-pyrazol-4-yl)-2,3-dihydrofuro[3,2-c]pyridin-4-yl)amino)methyl)phenyl)-1-methyl-1H-indazole-4-carboxamide], the inhibition constant Ki at ROCK1 [1] is 3 to 30 nM; on ROCK2 [2] it was ≤ 3 nM.

As to `O=C(NCc1ccon1)c1cccc(CNc2ncc(-c3cn[nH]c3)c3c2CCO3)c1` [Example 13, 3-(((7-(1H-pyrazol-4-yl)-2,3-dihydrofuro[3,2-c]pyridin-4-yl)amino)methyl)-N-(isoxazol-3-ylmethyl)benzamide], the Ki was 3 to 30 nM at ROCK1 [3] and ≤ 3 nM on ROCK2 [4].

On to `O=C(NCCc1cccnc1)c1cccc(CNc2ncc(-c3cn[nH]c3)c3c2CCO3)c1` [Example 22, 3-(((7-(1H-pyrazol-4-yl)-2,3-dihydrofuro[3,2-c]pyridin-4-yl)amino)methyl)-N-(2-(pyridin-3-yl)ethyl)benzamide], for which the Ki at ROCK1 [1] and at ROCK2 [2] was ≤ 3 nM throughout.

The values above are taken from patent US20240082223A1, “DIHYDROFUROPYRIDINE DERIVATIVES AS RHO- KINASE INHIBITORS” (CHIESI FARMACEUTICI S.P.A., priority 2020, published 2024).
